According to patent US20100267561A1, “HERBICIDAL PYRIDAZINONE DERIVATIVES” (priority 2007, published 2010):

What was measured:
Assay type in all cases: in vivo
[1] = system: wild oat (AVEFA, Avena fatua); assay: Test G mixtures of Compound 26 with crop safeners, postemergence plant response; conditions: applied alone, 125 g a.i./ha
Procedure: (§1) This test evaluated the effect of mixtures of Compound 26 with commercial crop safeners cloquintocet-mexyl, mefenpyr-diethyl, and fenchlorazole-ethyl on three plant species. Seeds of winter wheat (TRZAW, Triticum aestivum), winter barley (HORVX, Hordeum vulgare), and wild oat (AVEFA, Avena fatua) (a weed) were planted into a silt loam soil. Plants from these seeds were treated postemergence using test chemicals formulated in a non-phytotoxic solvent mixture that included a surfactant. Plants ranged in height from 6 to 10 cm (2- to 3-leaf stage).
(§2) Plants were grown in a greenhouse using supplemental lighting to maintain a photoperiod of about 14 hours; daytime and nighttime temperatures were about 22-26° C. and 15-19° C., respectively. Balanced fertilizer was applied through the watering system. Treatments consisted of Compound 26 and the above mentioned safeners alone and in combination using a spray volume of 281 L/ha. Each treatment was replicated four times. Treated plants and controls were maintained in a greenhouse for 15 days, after which time all treated plants were compared to controls and visually evaluated. Plant response ratings were calculated as the means of the four replicates based on a scale of 0 to 100 where 0 is no effect and 100 is complete control and are summarized in Tables G1 to G3. Because the safeners alone caused no injury at the rates tested, the expected effect of a mixture of Compound 26 with a safener is the same as the observed effect of Compound 26 alone.
(§3) The highest application rate of each safener was tested alone to confirm the absence of herbicidal activity on the test species when appled postemergence at 125 g ai/ha. Therefore, an extrapolated result of zero for each safener alone at 16, 31, or 62 g ai/ha was used to calculate the mixture response of Compound 26 and these safener application rates.

[2] = system: winter barley (HORVX, Hordeum vulgare); assay: as above; conditions: applied alone, 125 g a.i./ha
Procedure: as §1, §2, §3

[3] = system: winter wheat (TRZAW, Triticum aestivum); assay: as above; conditions: applied alone, 125 g a.i./ha
Procedure: as §1, §2, §3

[4] = system: wild oat (AVEFA, Avena fatua); assay: Test F mixtures with safener cloquintocet-mexyl, pre-/postemergence plant response; conditions: for AVEFA Obsd. (observed effect) plant response rating, scale 0 to 100: applied alone
Description: (§4) This test evaluated the effect of mixtures of Compound 3, Compound 11, or Compound 12 with the commercial crop safener cloquintocet-mexyl on three plant species. Seeds of test plants consisting of winter wheat (TRZAW, Triticum aestivum), winter barley (HORVX, Hordeum vulgare), and wild oat (AVEFA, Avena fatua) (a weed) were planted into a blend of loam soil and sand and treated preemergence with a directed soil spray using test chemicals formulated in a non-phytotoxic solvent mixture that included a surfactant. At the same time, plants selected from these crop and weed species were treated with postemergence applications of the test chemicals formulated in the same manner. Plants ranged in height from 2 to 18 cm (1- to 4-leaf stage) for postemergence treatments.
(§5) Plants were grown in a greenhouse using supplemental lighting to maintain a photoperiod of about 16 hours; daytime and nighttime temperatures were about 24-30° C. and 19-21° C., respectively. Balanced fertilizer was applied through the watering system. Treatments consisted of Compound 3, Compound 11, or Compound 12 and the above mentioned safener alone and in combination using a spray volume of 457 L/ha. Each treatment was replicated three times. Treated plants and controls were maintained in a greenhouse for 14 to 21 days, after which time all treated plants were compared to controls and visually evaluated. Plant response ratings were calculated as the means of the three replicates and are summarized in Tables F1 to F6, and are based on a scale of 0 to 100 where 0 is no effect and 100 is complete control. Because cloquintocet-mexyl alone caused no injury at the rates tested, the expected effect of a mixture of Compound 3 with cloquintocet-mexyl is the same as the observed effect of Compound 3 applied alone.

[5] = system: winter barley (HORVX, Hordeum vulgare); assay: as above; conditions: for HORVX Obsd. (observed effect) plant response rating, scale 0 to 100: applied alone
Description: as §4, §5

[6] = system: winter wheat (TRZAW, Triticum aestivum); assay: as above; conditions: for TRZAW Obsd. (observed effect) plant response rating, scale 0 to 100: applied alone
Description: as §4, §5

SMILES: CCCCCC(C)OC(=O)COc1ccc(Cl)c2cccnc12 (stereo not drawn) [cloquintocet-mexyl, reference compound]
- AVEFA Obsd. (observed effect) plant response rating, scale 0 to 100 [1]: 0
- HORVX Obsd. (observed effect) plant response rating, scale 0 to 100 [2]: 0
- TRZAW Obsd. (observed effect) plant response rating, scale 0 to 100 [3]: 0
- AVEFA Obsd. (observed effect) plant response rating, scale 0 to 100 ([4]; postemergence, 4 g a.i./ha): 0
- AVEFA Obsd. (observed effect) plant response rating, scale 0 to 100 ([4]; postemergence, 8 g a.i./ha): 0
- AVEFA Obsd. (observed effect) plant response rating, scale 0 to 100 ([4]; preemergence, 4 g a.i./ha): 0
- AVEFA Obsd. (observed effect) plant response rating, scale 0 to 100 ([4]; preemergence, 8 g a.i./ha): 0
- plant response (injury), safener alone ([4]; wild oat, safener alone at the rates tested, pre- and postemergence, 14 to 21 days): no injury
- HORVX Obsd. (observed effect) plant response rating, scale 0 to 100 ([5]; postemergence, 4 g a.i./ha): 0
- HORVX Obsd. (observed effect) plant response rating, scale 0 to 100 ([5]; postemergence, 8 g a.i./ha): 0
- HORVX Obsd. (observed effect) plant response rating, scale 0 to 100 ([5]; preemergence, 4 g a.i./ha): 0
- HORVX Obsd. (observed effect) plant response rating, scale 0 to 100 ([5]; preemergence, 8 g a.i./ha): 0
- plant response (injury), safener alone ([5]; winter barley, safener alone at the rates tested, pre- and postemergence, 14 to 21 days): no injury
- TRZAW Obsd. (observed effect) plant response rating, scale 0 to 100 ([6]; postemergence, 4 g a.i./ha): 0
- TRZAW Obsd. (observed effect) plant response rating, scale 0 to 100 ([6]; postemergence, 8 g a.i./ha): 0
- TRZAW Obsd. (observed effect) plant response rating, scale 0 to 100 ([6]; preemergence, 4 g a.i./ha): 0
- TRZAW Obsd. (observed effect) plant response rating, scale 0 to 100 ([6]; preemergence, 8 g a.i./ha): 0
- plant response (injury), safener alone ([6]; winter wheat, safener alone at the rates tested, pre- and postemergence, 14 to 21 days): no injury
